Laboratory results reported in US20220088040A1, “Use of System XC-Inhibitor for Treating Statin-Induced Myalgia” (Exerkine Corporation, priority 2017, published 2022).

Legend:
C2C12 myotubes = assay: Glutamate efflux from C2C12 myotubes (Amplex Red glutamic acid assay of culture media); format: cell-based, murine; conditions: for effect on glutamate efflux caused by atorvastatin: sulfasalazine 20 μM, cysteamine bitartrate 100 and 300 μM, vitamin E 100 μM, coenzyme Q10 50 μM; for glutamate efflux levels: co-treated with atorvastatin 5 μM and sulfasalazine 20 μM
system Xc- subunit xCT = assay: xCT protein content in C2C12 myotubes by chemiluminescent immunoblot; format: cell-based, murine; conditions: atorvastatin 5 μM
[1] = test system: primary human fibroblasts; assay: Glutamate efflux from primary human fibroblasts; format: cell-based; conditions: statin (atorvastatin 5 μM) (FIG. 3B)
Sprague Dawley rats = assay: Extramyocellular glutamate in rat gastrocnemius muscle by interstitial microdialysis; format: in vivo; conditions: 10 days, muscle dialysate (FIG. 6)
primary human myoblasts = conditions: co-treatment of statin (atorvastatin 5 μM) with sulfasalazine 20 μM (FIG. 3A)
[2] = 5 μM atorvastatin, combination 100 μM vitamin E + 35 μM coenzyme Q10, N-acetylcysteine 5 mM (FIG. 4)
[3] = 7.5 μM atorvastatin, combination 100 μM vitamin E + 35 μM coenzyme Q10, N-acetylcysteine 5 mM (FIG. 5)

Compound | effect on glutamate efflux caused by atorvastatin (C2C12 myotubes; [2]) | effect on glutamate efflux caused by atorvastatin (C2C12 myotubes; [3]) | other results
NCCS.O=C(O)C(O)C(O)C(=O)O (stereo not shown) [Cysteamine bitartrate] | mitigated | mitigated | 
CC(=O)N[C@@H](CS)C(=O)O [N-acetylcysteine] | substantially increased | substantially increased | 
CC(C)c1c(C(=O)Nc2ccccc2)c(-c2ccccc2)c(-c2ccc(F)cc2)n1CC[C@@H](O)C[C@@H](O)CC(=O)O [atorvastatin] |  |  | elevated xCT protein level (system Xc- subunit xCT; 24 hour time point (FIG. 1)): still present; elevation in xCT abundance (system Xc- subunit xCT; after 12 hours, vs vehicle (FIG. 1)): approximately 2 fold; extracellular glutamate concentrations [1]: no changes; increase in extramyocellular glutamate concentrations compared with the Control group (Sprague Dawley rats; atorvastatin 40 mg/kg/day oral): 21%
O=C(O)c1cc(/N=N/c2ccc(S(=O)(=O)Nc3ccccn3)cc2)ccc1O [sulfasalazine] | inhibited | inhibited | glutamate efflux levels (C2C12 myotubes; 6 hour time point (FIG. 2)): initial increase; glutamate efflux levels (C2C12 myotubes; 12 hour to 24 hour time points (FIG. 2)): declined to baseline levels; glutamate efflux (C2C12 myotubes; sulfasalazine alone 20 μM, throughout the 0-24 h treatment period (FIG. 2)): around those of baseline values; extramyocellular glutamate concentrations, lower than Control (Sprague Dawley rats; atorvastatin 40 mg/kg/day with sulfasalazine 200 mg/kg/day oral): 19%; glutamate efflux / extracellular glutamate levels (primary human myoblasts): blocked this efflux and further reduced extracellular glutamate levels to those below the vehicle control group
COc1c(O)c(C)c(C/C=C(\C)CC/C=C(\C)CC/C=C(\C)CC/C=C(\C)CC/C=C(\C)CC/C=C(\C)CC/C=C(\C)CC/C=C(\C)CC/C=C(\C)CCC=C(C)C)c(O)c1OC [ubiquinol] | mitigated | mitigated | 
vitamin E | mitigated | mitigated | 
